Experimental data from patent US7214690B2, “Tricyclic quinolinone and tricyclic quinoline androgen receptor modulator compounds and methods” (Ligand Pharmaceuticals Incorporated, priority 2001, dated 2007).

Tests used:
Type in all cases: cell-based
ER = target: T1, ER (Homo sapiens, UniProt P03372); experiment: co-transfection assay, ER
T1 construct: expressed in transfected cells; host or cells: background cell substantially devoid of endogenous IRs (CV-1 described for the co-transfection assay)
T1 sequence (P03372 1-595): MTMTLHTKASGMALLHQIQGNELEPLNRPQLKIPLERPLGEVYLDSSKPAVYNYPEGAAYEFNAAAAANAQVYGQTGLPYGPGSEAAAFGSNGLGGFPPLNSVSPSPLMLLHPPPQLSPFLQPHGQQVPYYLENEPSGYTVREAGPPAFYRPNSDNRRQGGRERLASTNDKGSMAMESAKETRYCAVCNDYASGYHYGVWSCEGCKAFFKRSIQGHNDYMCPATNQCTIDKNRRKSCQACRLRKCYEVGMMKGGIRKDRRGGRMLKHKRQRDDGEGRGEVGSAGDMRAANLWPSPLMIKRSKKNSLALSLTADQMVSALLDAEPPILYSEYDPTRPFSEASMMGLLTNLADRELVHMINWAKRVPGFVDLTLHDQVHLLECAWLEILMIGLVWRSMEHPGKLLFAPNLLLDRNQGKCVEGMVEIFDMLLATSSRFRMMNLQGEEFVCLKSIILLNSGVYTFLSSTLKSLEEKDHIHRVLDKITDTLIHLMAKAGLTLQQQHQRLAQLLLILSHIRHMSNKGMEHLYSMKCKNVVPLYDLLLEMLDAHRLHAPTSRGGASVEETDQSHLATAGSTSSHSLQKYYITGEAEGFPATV
Procedure: (§1) CV-1 cells (African green monkey kidney fibroblasts) were cultured in the presence of Dulbecco's Modified Eagle Medium (DMEM) supplemented with 10% charcoal resin-stripped fetal bovine serum (CH-FBS) then transferred to 96-well microtiter plates one day prior to transfection.
(§2) Three to four replicates were used for each sample.
(§3) After 40 hours, the cells were washed with PBS, lysed with a Triton X-100-based buffer and assayed for LUC and β-Gal activities using a luminometer or spectrophotometer, respectively. For each replicate, the normalized response (NR) was calculated as: LUC response/β-Gal rate • where β-Gal rate=β-Gal/β-Gal incubation time.

PR = target: T2, PR (Homo sapiens, UniProt P06401); experiment: co-transfection assay, PR
T2 construct: expressed in transfected cells; host or cells: background cell substantially devoid of endogenous IRs (CV-1 described for the co-transfection assay)
T2 sequence (P06401 1-933): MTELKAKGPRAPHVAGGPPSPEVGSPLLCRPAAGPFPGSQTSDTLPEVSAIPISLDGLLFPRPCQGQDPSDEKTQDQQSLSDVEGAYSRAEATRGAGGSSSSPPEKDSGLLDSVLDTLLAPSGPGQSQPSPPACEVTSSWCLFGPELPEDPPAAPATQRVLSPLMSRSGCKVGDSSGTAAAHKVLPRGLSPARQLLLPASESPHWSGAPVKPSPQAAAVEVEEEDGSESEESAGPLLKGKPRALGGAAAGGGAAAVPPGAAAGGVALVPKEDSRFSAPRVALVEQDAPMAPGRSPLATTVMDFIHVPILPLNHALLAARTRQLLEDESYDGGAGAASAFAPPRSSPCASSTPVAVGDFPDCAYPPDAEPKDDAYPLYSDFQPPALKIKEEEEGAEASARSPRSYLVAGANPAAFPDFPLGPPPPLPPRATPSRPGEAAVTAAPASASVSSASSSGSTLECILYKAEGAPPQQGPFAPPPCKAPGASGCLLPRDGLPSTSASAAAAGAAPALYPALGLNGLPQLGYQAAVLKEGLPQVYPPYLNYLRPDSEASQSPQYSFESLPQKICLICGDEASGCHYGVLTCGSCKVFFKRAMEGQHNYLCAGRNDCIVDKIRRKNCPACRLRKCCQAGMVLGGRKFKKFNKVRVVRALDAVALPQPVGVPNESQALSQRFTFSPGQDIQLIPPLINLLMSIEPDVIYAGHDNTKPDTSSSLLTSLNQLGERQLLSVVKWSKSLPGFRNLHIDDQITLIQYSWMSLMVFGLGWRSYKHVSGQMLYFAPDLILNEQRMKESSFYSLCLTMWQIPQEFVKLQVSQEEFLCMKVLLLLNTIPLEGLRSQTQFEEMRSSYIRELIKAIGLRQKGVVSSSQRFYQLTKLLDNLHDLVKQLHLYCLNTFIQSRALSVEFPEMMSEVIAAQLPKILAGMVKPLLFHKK
Procedure: as §1, §2, §3

GR = target: T3, GR (Homo sapiens, UniProt P04150); experiment: co-transfection assay, GR
T3 construct: expressed in transfected cells; host or cells: background cell substantially devoid of endogenous IRs (CV-1 described for the co-transfection assay)
T3 sequence (P04150 1-777): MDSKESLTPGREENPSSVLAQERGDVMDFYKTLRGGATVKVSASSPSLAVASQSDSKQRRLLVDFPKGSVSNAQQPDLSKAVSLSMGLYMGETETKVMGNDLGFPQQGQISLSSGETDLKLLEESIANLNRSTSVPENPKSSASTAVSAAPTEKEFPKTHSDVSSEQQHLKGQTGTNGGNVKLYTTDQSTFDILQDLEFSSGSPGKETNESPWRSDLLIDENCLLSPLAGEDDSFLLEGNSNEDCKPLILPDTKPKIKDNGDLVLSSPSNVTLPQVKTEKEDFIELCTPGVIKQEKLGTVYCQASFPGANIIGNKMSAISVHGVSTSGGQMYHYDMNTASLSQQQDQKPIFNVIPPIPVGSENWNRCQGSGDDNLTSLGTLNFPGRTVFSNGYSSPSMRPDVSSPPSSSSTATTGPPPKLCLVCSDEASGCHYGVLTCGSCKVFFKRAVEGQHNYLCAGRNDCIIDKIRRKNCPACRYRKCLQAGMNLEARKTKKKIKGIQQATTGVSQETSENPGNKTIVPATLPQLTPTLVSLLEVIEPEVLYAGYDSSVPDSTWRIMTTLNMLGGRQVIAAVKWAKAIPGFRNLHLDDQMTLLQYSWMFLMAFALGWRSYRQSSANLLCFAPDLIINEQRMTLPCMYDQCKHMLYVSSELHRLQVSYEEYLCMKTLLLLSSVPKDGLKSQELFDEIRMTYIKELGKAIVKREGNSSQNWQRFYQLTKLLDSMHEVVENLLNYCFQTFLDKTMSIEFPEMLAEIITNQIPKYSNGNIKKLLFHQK
Procedure: as §1, §2, §3

MR = target: T4, MR (Homo sapiens, UniProt P08235); experiment: co-transfection assay, MR
T4 construct: expressed in transfected cells; host or cells: background cell substantially devoid of endogenous IRs (CV-1 described for the co-transfection assay)
T4 sequence (P08235 1-984): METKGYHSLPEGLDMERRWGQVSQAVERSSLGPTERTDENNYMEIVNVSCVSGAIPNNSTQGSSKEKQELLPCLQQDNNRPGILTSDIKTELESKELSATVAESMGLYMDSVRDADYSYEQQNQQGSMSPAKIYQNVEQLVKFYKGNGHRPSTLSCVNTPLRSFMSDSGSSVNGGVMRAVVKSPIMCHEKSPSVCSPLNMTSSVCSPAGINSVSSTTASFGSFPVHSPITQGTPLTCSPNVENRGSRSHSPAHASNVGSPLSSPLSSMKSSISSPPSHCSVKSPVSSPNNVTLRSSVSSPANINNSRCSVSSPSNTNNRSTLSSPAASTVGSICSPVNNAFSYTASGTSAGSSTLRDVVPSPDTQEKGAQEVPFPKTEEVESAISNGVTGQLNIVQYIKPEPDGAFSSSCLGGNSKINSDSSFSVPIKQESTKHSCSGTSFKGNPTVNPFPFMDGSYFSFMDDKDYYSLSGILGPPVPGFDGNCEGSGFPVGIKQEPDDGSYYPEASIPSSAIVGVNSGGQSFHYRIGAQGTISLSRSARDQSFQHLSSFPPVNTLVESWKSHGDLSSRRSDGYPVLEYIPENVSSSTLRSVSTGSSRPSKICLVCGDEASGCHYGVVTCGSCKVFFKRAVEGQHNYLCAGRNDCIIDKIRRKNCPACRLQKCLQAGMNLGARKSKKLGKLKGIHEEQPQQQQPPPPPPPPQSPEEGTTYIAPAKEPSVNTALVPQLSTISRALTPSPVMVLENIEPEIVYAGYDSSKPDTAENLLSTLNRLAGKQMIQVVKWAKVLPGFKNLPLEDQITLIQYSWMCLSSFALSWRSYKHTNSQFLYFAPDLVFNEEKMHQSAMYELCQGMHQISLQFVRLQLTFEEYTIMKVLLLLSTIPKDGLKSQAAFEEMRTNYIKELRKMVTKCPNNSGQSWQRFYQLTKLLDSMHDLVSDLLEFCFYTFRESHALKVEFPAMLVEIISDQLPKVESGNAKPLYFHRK
Procedure: as §1, §2, §3

C[C@@H]1COc2c(ccc3[nH]c(=O)cc(C(F)(F)F)c23)N1 [Compound 101, (3R)-2,3,4,7-Tetrahydro-3-methyl-10-(trifluoromethyl)-8H-[1,4]oxazino[2,3-f]quinolin-8-one]
> 10 µM: EC50 (ER) | IC50 (ER) | EC50 (PR) | IC50 (GR) | IC50 (MR)

CCN1c2ccc3[nH]c(=O)cc(C(F)(F)F)c3c2OC[C@H]1C [Compound 103, (3R)-4-Ethyl-2,3,4,7-tetrahydro-3-methyl-10-(trifluoromethyl)-8H-[1,4]oxazino[2,3-f]quinolin-8-one]
> 10 µM: EC50 (ER) | IC50 (ER) | EC50 (PR) | IC50 (GR) | IC50 (MR)
